Assay results as given in patent US9078871B2, “Estrogen receptor modulators and uses thereof” (SERAGON PHARMACEUTICALS, INC., priority 2010, dated 2015).

Experiments:
Type in all cases: cell-based
MCF-7 cells = experiment: Breast Cancer Cell Viability Assay (MCF7 Viability Assay); settings: 5 days' compound exposure, CellTiter-Glo; for IC50: Homo sapiens, MCF7, 120 h
Summary of the method: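 MCF-7 cells, 320 per well in RPMI with 10% FBS and 20 mM HEPES, adhered overnight, then exposed 5 days to an eleven-point semilog dilution (final 0.3–0.000003 μM). CellTiter-Glo luminescence; % viability relative to untreated cells after subtracting cell-free background.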

ER-α [1] = biological target: T1, ER-α (Homo sapiens, UniProt P03372); experiment: ER-α In Cell Western Assay (ER1D5); settings: MCF-7 cells, ER1D5 antibody, 4 or 24 hr post compound addition, read-out: ER In-Cell Western Assay (ER1D5); for Emax: MCF7, Max Response; for DC50: IC50
T1 construct: endogenous in cells; host or cells: MCF-7
T1 sequence (P03372 1-595): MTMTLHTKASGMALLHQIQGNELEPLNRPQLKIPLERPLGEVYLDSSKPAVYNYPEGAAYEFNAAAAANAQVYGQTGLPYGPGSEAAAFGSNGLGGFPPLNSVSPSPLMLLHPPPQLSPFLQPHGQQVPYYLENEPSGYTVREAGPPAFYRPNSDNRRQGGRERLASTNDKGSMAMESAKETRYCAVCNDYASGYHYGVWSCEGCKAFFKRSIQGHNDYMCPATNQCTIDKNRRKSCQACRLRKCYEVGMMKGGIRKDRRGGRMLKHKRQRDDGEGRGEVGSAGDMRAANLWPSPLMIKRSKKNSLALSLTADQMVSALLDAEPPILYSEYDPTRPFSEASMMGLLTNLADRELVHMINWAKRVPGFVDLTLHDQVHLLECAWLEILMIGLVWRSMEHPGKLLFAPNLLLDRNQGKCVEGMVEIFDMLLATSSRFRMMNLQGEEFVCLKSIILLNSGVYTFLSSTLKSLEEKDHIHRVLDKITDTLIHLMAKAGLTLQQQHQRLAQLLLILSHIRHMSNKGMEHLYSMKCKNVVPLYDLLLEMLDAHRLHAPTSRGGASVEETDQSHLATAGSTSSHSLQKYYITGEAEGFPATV
Description: MCF-7 cells were adjusted to a concentration of 200,000 cells per mL in RPMI containing 10% charcoal-stripped FBS and 20 mM HEPES. 16 microliters of the cell suspension (3200 cells) was added to each well of a poly-D-lysine 384 well plate, and the cells were incubated overnight to allow the cells to adhere. The following day an eleven point, serial semilog dilution of each compound was added to the cells in 16 μL at a final concentration ranging from 0.3-0.000003 μM. At 4 or 24 hr post compound addition, the cells were fixed (10% formalin in PBS) for 20 minutes. Cells were permeabalized in PBS 0.1% Triton and blocked with LICOR blocking buffer (50 μl/well, 90′). The wells were then incubated overnight at 4° C. with ER1D5 (Santa Cruz Biotechnology) diluted 1:100 in LICOR blocking buffer/0.1% Tween-20. Wells which were treated with blocking buffer with Tween but no antibody were used as a background control. Wells were washed with 0.1% Tween-20/PBS and then incubated in goat anti-mouse IRDye™ 800CW (LICOR Inc.; 1:1000) and DRAQ5 DNA dye (1:2000 for 2 mM stock) diluted in LICOR blocking buffer containing 0.1% Tween-20 and 0.01% SDS for 60 minutes. Cells were washed (50 μl/well, 5′ each) in 0.1% Tween-20/PBS. Plates were scanned on a LICOR Odyssey infrared imaging system. Integrated intensities in the 800 nm channel and 700 nm channel were measured to determine levels of ER and DNA respectively. Percent ER levels were determined as follows: (Integrated intensity 800 nm sample/integrated intensity 700 nm sample)/(Integrated intensity 800 nm untreated cells/integrated intensity 700 nm untreated cells)×100=% ER levels.

ER-α [2] = biological target: T1, ER-α; experiment: ER-α in Cell Western Assay (SP1); settings: MCF-7 cells, SP1 rabbit monoclonal Ab, 4 or 24 hr post compound addition, read-out: ER In-Cell Western Assay (SP1); for Emax: MCF7, Max Response; for DC50: IC50
Summary of the method: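 MCF-7 cells in charcoal-stripped FBS medium treated with 11-point semilog dilutions (0.3–0.000003 μM final) for 4 or 24 hr, then fixed and immunostained with SP1 anti-ER antibody. ER signal (800 nm) normalized to DRAQ5 DNA signal (700 nm) and expressed as % of untreated cells.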

IC50 (MCF-7 cells)	Emax (ER-α [1])	DC50 (ER-α [1])	Emax (ER-α [2])	DC50 (ER-α [2])	Structure (SMILES)	MCF7 Viability Assay Max Response (MCF-7 cells)
≤ 1 nM	< 40%	> 1 nM	< 60%	≤ 1 nM	CC1=C(c2cccc(O)c2)C(c2ccc(OCCn3ccnc3)cc2)Oc2ccc(O)cc21 (stereo not drawn) [Example 16]	+ (+ = a single % value <50%)
≤ 1 nM	40 to 65%	≤ 1 nM	60 to 85%	≤ 1 nM	CC1=C(c2cccc(O)c2)C(c2ccc(OCCN3CCCCCC3)cc2)Oc2ccc(O)cc21 (stereo not drawn) [Example 17, 2-(4-(2-(Azepan-1-yl)ethoxy)phenyl)-3-(3-hydroxyphenyl)-4-methyl-2H-chromen-6-ol]	+ (+ = a single % value <50%)
≤ 1 nM	≥ 65%	≤ 1 nM	60 to 85%	≤ 1 nM	CC1=C(c2cccc(O)c2)C(c2ccc(OC[C@H](C)N3CCC(C)(C)C3)cc2)Oc2ccc(O)cc21 (stereo partly drawn) [Example 18, 2-(4-((S)-2-(3,3-Dimethylpyrrolidin-1-yl)propoxy)phenyl)-3-(3-hydroxyphenyl)-4-methyl-2H-chromen-6-ol]	++ (++ = a single % value ≧50%)
≤ 1 nM	≥ 65%	≤ 1 nM	60 to 85%	≤ 1 nM	CC1=C(c2cccc(O)c2)C(c2ccc(OCCN3CCC(C)(C)C3)cc2)Oc2ccc(O)cc21 (stereo not drawn) [Example 19, 2-(4-(2-(3,3-Dimethylpyrrolidin-1-yl)ethoxy)phenyl)-3-(3-hydroxyphenyl)-4-methyl-2H-chromen-6-ol]	++ (++ = a single % value ≧50%)
≤ 1 nM	40 to 65%	≤ 1 nM	60 to 85%	≤ 1 nM	CC1=C(c2cccc(O)c2)C(c2ccc(OCCN3CCC[C@H]3C)cc2)Oc2ccc(O)cc21 (stereo partly drawn) [Example 20, 3-(3-Hydroxyphenyl)-4-methyl-2-(4-(2-((R)-2-methylpyrrolidin-1-yl)ethoxy)phenyl)-2H-chromen-6-ol]	++ (++ = a single % value ≧50%)
≤ 1 nM	40 to 65%	≤ 1 nM	60 to 85%	≤ 1 nM	CC1=C(c2cccc(O)c2)C(c2ccc(OCCN3CCC(C)CC3)cc2)Oc2ccc(O)cc21 (stereo not drawn) [Example 21, 3-(3-Hydroxyphenyl)-4-methyl-2-(4-(2-(4-methylpiperidin-1-yl)ethoxy)phenyl)-2H-chromen-6-ol]	++ (++ = a single % value ≧50%)
≤ 1 nM	40 to 65%	> 1 nM	60 to 85%	≤ 1 nM	CC1=C(c2cccc(O)c2)C(c2ccc(NCCN3CCCC3)cc2)Oc2ccc(O)cc21 (stereo not drawn) [Example 22, 3-(3-Hydroxyphenyl)-4-methyl-2-(4-((2-(pyrrolidin-1-yl)ethyl)amino)phenyl)-2H-chromen-6-ol]	+ (+ = a single % value <50%)
≤ 1 nM	≥ 65%	≤ 1 nM	≥ 85%	≤ 1 nM	CC1=C(c2cccc(O)c2)C(c2ccc(OC[C@H](C)N3CCC[C@H]3C)cc2)Oc2ccc(O)cc21 (stereo partly drawn) [Example 23, 3-(3-Hydroxyphenyl)-4-methyl-2-(4-((S)-2-((R)-2-methylpyrrolidin-1-yl)propoxy)phenyl)-2H-chromen-6-ol]	++ (++ = a single % value ≧50%)
≤ 1 nM	40 to 65%	≤ 1 nM	< 60%	≤ 1 nM	CC1=C(c2cccc(O)c2)C(c2ccc(OC[C@H](C)N3CCC[C@@H]3C)cc2)Oc2ccc(O)cc21 (stereo partly drawn) [Example 24, 3-(3-Hydroxyphenyl)-4-methyl-2-(4-((S)-2-((S)-2-methylpyrrolidin-1-yl)propoxy)phenyl)-2H-chromen-6-ol]	+ (+ = a single % value <50%)
≤ 1 nM	< 40%	≤ 1 nM	< 60%	≤ 1 nM	CC1=C(c2cccc(O)c2)C(c2ccc(OCCN3CCCCCCC3)cc2)Oc2ccc(O)cc21 (stereo not drawn) [Example 25, 2-(4-(2-(Azocan-1-yl)ethoxy)phenyl)-3-(3-hydroxyphenyl)-4-methyl-2H-chromen-6-ol]	+ (+ = a single % value <50%)
≤ 1 nM	40 to 65%	≤ 1 nM	60 to 85%	≤ 1 nM	CC1=C(c2cccc(O)c2)C(c2ccc(OCCN3CCCC3)cc2)Oc2cc(O)ccc21 (stereo not drawn) [Example 26, 3-(3-Hydroxyphenyl)-4-methyl-2-(4-(2-(pyrrolidin-1-yl)ethoxy)phenyl)-2H-chromen-7-ol]	++ (++ = a single % value ≧50%)
≤ 1 nM	≥ 65%	≤ 1 nM	≥ 85%	≤ 1 nM	CC1=C(c2ccc(O)cc2)C(c2ccc(OC[C@H](C)N3CC[C@@H](C)C3)cc2)Oc2cc(O)ccc21 (stereo partly drawn) [Example 28, 3-(4-Hydroxyphenyl)-4-methyl-2-(4-((S)-2-((R)-3-methylpyrrolidin-1-yl)propoxy)phenyl)-2H-chromen-7-ol]	++ (++ = a single % value ≧50%)
≤ 1 nM	≥ 65%	≤ 1 nM	60 to 85%	≤ 1 nM	CC1=C(c2ccccc2)C(c2ccc(OC[C@H](C)N3CC[C@@H](C)C3)cc2)Oc2ccc(O)cc21 (stereo partly drawn) [Example 29, 4-Methyl-2-(4-((S)-2-((R)-3-methylpyrrolidin-1-yl)propoxy)phenyl)-3-phenyl-2H-chromen-6-ol]	++ (++ = a single % value ≧50%)
≤ 1 nM	≥ 65%	≤ 1 nM	≥ 85%	≤ 1 nM	CC1=C(c2cccc(F)c2)C(c2ccc(OC[C@H](C)N3CC[C@@H](C)C3)cc2)Oc2ccc(O)cc21 (stereo partly drawn) [Example 32, 3-(3-Fluorophenyl)-4-methyl-2-(4-((S)-2-((R)-3-methylpyrrolidin-1-yl)propoxy)phenyl)-2H-chromen-6-ol]	+ (+ = a single % value <50%)

Structure (SMILES)	IC50 (MCF-7 cells)	Emax (ER-α [1])	DC50 (ER-α [1])	Emax (ER-α [2])	DC50 (ER-α [2])	MCF7 Viability Assay Max Response (MCF-7 cells)
CC1=C(c2cccc(O)c2)C(c2ccc(OC[C@H](C)N3CC[C@@H](C)C3)cc2)Oc2cc(O)ccc21 (stereo partly drawn) [Example 27, 3-(3-Hydroxyphenyl)-4-methyl-2-(4-((S)-2-((R)-3-methylpyrrolidin-1-yl)propoxy)phenyl)-2H-chromen-7-ol]	≤ 1 nM	≥ 65%	≤ 1 nM	≥ 85%	≤ 1 nM	++ (++ = a single % value ≧50%)
CC1=C(c2ccc(O)cc2)C(c2ccc(OC[C@H](C)N3CC[C@@H](C)C3)cc2)Oc2ccc(O)cc21 (stereo partly drawn) [Example 31, 3-(4-Hydroxyphenyl)-4-methyl-2-(4-((S)-2-((R)-3-methylpyrrolidin-1-yl)propoxy)phenyl)-2H-chromen-6-ol]	≤ 1 nM	≥ 65%	≤ 1 nM	≥ 85%	≤ 1 nM	++ (++ = a single % value ≧50%)
